Source: patent US6617354B1, “Method of stabilizing and potentiating the action of anti-angiogenic substances” (priority 2000, dated 2003)

Legend:
tumor cells [1] = experiment: PUFAs on tumor cells and normal cells in vitro; format: cell-based; conditions: for tumor cell proliferation: in vitro; for selective killing of tumor cells versus normal cells: tumor cells and normal cells in vitro
From the text: (§1) Tumor cells are not only deficient in PUFAs but also have low rate(s) of lipid peroxidation, contain relatively large amounts of antioxidants such as vitamin E and superoxide dismutase (SOD). It is also believed that low rates of lipid peroxidation and consequent low amounts of lipid peroxides in the cells can contribute to an increase in the mitotic process which ultimately leads to an increase in cell proliferation. Thus, a deficiency of PUFAs, high amounts of antioxidants and the presence of low amounts of lipid peroxides in the tumor cells can contribute to the growth of tumor cells.
Essential fatty acids are precursors of eicosanoids and are important structural components of cell membranes. They also provide the substrates for the generation of lipid peroxidation products which have an inhibitory action on cell proliferation. Tumor cells are known to have low delta-6-desaturase activity, an enzyme necessary for the desaturation of dietary linoleic acid (LA, 18:2, n-6) and alpha-linolenic acid (ALA, 18:3, n-3) to their respective products. […] This selective tumoricidal action of fatty acids seems to be mediated by free radicals and lipid peroxides.

tumor cells [2] = experiment: Mixed culture of normal and tumor cells; format: cell-based; conditions: normal and tumor cells grown together
From the text: as §1

skin papilloma = experiment: Skin papilloma in mice; format: in vivo; conditions: pure fatty acid or fatty acid rich oils
hepatoma = experiment: Hepatoma in rats; format: in vivo; conditions: pure fatty acid or fatty acid rich oils
ascitic tumor cells = experiment: Ascitic tumor cells in the peritoneum of experimental animals; format: in vivo; conditions: pure fatty acid or fatty acid rich oils
tumor cells [3] = experiment: Potentiation of anti-cancer drugs by PUFAs in tumor cells; format: cell-based; conditions: combination with the fatty acid
[4] = tested on: TNF resistant L-929 tumor cells; experiment: TNF resistant L-929 tumor cells in vitro; format: cell-based; conditions: for killing of TNF resistant L-929 tumor cells: in vitro; for sensitisation of TNF-resistant L-929 cells to TNF: prior treatment with the fatty acid
KB-chR 8-5 cells = experiment: Vincristine resistant KB-8-5 tumor cells; format: cell-based
bone marrow cells = experiment: Side effects of gamma-radiation and cis-platinum to bone marrow cells of mice; format: in vivo
E-selectin = conditions: proliferating endothelial cells; cited from earlier work
[5] = target: T1, alpha/beta sub-units of ATP synthase (Homo sapiens, UniProt P06576+P25705); conditions: human umbilical vein endothelial cells; cited from earlier work
T1 construct: Using human umbilical endothelial vein endothelial cells; endogenous in cells; host or cells: human umbilical vein endothelial cells
T1 sequence (P25705 44-553): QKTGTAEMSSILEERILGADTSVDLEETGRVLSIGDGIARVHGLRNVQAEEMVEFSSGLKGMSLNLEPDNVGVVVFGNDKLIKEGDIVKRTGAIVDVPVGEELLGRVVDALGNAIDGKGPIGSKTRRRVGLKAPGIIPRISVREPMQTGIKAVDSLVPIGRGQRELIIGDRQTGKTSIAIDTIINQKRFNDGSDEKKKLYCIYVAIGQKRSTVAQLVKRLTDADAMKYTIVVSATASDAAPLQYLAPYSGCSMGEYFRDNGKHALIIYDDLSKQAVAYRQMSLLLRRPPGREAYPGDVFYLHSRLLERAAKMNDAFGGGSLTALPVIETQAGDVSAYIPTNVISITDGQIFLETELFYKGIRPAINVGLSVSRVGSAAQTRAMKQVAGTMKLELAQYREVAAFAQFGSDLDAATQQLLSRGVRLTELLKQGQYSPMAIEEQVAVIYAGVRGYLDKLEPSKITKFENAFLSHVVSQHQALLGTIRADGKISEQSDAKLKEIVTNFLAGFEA
T1 sequence (P06576 48-529): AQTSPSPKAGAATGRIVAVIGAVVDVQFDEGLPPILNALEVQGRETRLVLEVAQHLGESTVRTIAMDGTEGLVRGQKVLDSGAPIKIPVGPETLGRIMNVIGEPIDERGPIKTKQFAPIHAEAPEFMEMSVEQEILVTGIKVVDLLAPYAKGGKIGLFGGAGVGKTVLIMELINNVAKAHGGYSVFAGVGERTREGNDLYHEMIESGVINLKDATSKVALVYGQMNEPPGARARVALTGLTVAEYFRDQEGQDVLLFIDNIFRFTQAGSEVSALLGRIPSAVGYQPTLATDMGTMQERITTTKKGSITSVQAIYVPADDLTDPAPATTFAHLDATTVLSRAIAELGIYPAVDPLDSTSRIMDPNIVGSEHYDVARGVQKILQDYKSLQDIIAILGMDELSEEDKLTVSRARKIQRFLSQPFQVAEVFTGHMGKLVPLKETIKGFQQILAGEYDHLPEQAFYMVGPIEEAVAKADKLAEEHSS
T1 sequence (P36542 26-298 partner): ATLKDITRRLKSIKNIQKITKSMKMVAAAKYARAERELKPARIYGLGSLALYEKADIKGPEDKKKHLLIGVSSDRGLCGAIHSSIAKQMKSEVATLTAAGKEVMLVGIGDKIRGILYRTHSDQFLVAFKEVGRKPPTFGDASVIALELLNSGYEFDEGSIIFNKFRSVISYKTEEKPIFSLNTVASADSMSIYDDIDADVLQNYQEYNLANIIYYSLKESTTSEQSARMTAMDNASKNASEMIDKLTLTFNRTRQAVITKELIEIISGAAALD
T1 sequence (P30049 23-168 partner): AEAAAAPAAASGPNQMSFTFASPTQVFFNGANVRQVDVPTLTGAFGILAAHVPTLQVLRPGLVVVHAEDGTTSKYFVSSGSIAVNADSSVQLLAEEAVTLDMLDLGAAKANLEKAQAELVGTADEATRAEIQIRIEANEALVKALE
T1 sequence (P56381 2-51 partner limits assumed): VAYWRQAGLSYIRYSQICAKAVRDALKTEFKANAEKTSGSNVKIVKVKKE

[6] = tested on: subcutaneous hemangioendothelioma; conditions: mice with subcutaneous hemangioendothelioma and disseminated intravascular coagulopathy; cited from earlier work
[7] = tested on: corneal plasminogen synthesis; conditions: cornea; cited from earlier work
tumor cells [8] = conditions: cited from earlier work

Compound: CCCCC/C=C\C/C=C\C/C=C\C/C=C\CCCC(=O)O [AA, arachidonic acid]
- tumor cell proliferation (tumor cells [1]): decrease tumor cell proliferation
- selective killing of tumor cells versus normal cells (tumor cells [1]): only tumor cells are killed
- selective tumoricidal action in mixed culture (tumor cells [2]): effective to some extent
- growth of skin papilloma (skin papilloma): inhibit the growth
- formation and growth of hepatoma (hepatoma): inhibit the growth
- growth of ascitic tumor cells in the peritoneum (ascitic tumor cells): inhibit the growth
- cellular uptake of anti-cancer drugs by the tumor cells (tumor cells [3]): enhance the cellular uptake
- cytotoxic action of doxorubicin, vincristine and cis-platinum (tumor cells [3]): augmented
- killing of TNF resistant L-929 tumor cells [4]: able to kill
- sensitisation of TNF-resistant L-929 cells to TNF [4]: rendered TNF sensitive
- sensitisation of vincristine resistant KB-8-5 cells to vincristine (KB-chR 8-5 cells): made sensitive

Compound: CC/C=C\C/C=C\C/C=C\CCCCCCCC(=O)O [ALA, alpha-linolenic acid]
- selective killing of tumor cells versus normal cells (tumor cells [1]): only tumor cells are killed

Compound: CCCCC/C=C\C/C=C\C/C=C\CCCCCCC(=O)O [DGLA, dihomo-GLA]
- tumor cell proliferation (tumor cells [1]): decrease tumor cell proliferation
- selective killing of tumor cells versus normal cells (tumor cells [1]): only tumor cells are killed
- growth of skin papilloma (skin papilloma): inhibit the growth
- formation and growth of hepatoma (hepatoma): inhibit the growth
- growth of ascitic tumor cells in the peritoneum (ascitic tumor cells): inhibit the growth
- cellular uptake of anti-cancer drugs by the tumor cells (tumor cells [3]): enhance the cellular uptake
- cytotoxic action of doxorubicin, vincristine and cis-platinum (tumor cells [3]): augmented
- killing of TNF resistant L-929 tumor cells [4]: able to kill
- sensitisation of TNF-resistant L-929 cells to TNF [4]: rendered TNF sensitive
- sensitisation of vincristine resistant KB-8-5 cells to vincristine (KB-chR 8-5 cells): made sensitive
- side effects of gamma-radiation and cis-platinum to bone marrow cells (bone marrow cells): prevent or ameliorate the side effects

Compound: CC/C=C\C/C=C\C/C=C\C/C=C\C/C=C\C/C=C\CCC(=O)O [DHA, docosahexaenoic acid]
- cytotoxic action of doxorubicin, vincristine and cis-platinum (tumor cells [3]): augmented

Compound: CC/C=C\C/C=C\C/C=C\C/C=C\C/C=C\CCCC(=O)O [EPA, eicosapentaenoic acid]
- cytotoxic action of doxorubicin, vincristine and cis-platinum (tumor cells [3]): augmented
- side effects of gamma-radiation and cis-platinum to bone marrow cells (bone marrow cells): prevent or ameliorate the side effects

Compound: CCCCC/C=C\C/C=C\C/C=C\CCCCC(=O)O [GLA, gamma-linolenic acid]
- tumor cell proliferation (tumor cells [1]): decrease tumor cell proliferation
- formation and growth of hepatoma (hepatoma): inhibit the growth
- growth of ascitic tumor cells in the peritoneum (ascitic tumor cells): inhibit the growth
- cellular uptake of anti-cancer drugs by the tumor cells (tumor cells [3]): enhance the cellular uptake
- cytotoxic action of doxorubicin, vincristine and cis-platinum (tumor cells [3]): augmented
- killing of TNF resistant L-929 tumor cells [4]: able to kill
- side effects of gamma-radiation and cis-platinum to bone marrow cells (bone marrow cells): prevent or ameliorate the side effects

Compound: CCCCC/C=C\C/C=C\CCCCCCCC(=O)O [LA, linoleic acid]
- selective killing of tumor cells versus normal cells (tumor cells [1]): only tumor cells are killed

Compound: CC\C=C/C=C/C=C/C=C\CCCCCCCC(=O)O [cis-parinaric acid]
- selective killing of tumor cells versus normal cells (tumor cells [1]): only tumor cells are killed

Compound: angiostatin®
- effect on expression of E-selectin (E-selectin): 4 to 5 fold
- binding to alpha/beta sub-units of ATP synthase [5]: bound in a concentration-dependent, saturable manner
- size of the tumor [6]: significant reduction
- survival [6]: increased survival

Compound: interleukin-6: cytokine
- decrease of corneal plasminogen synthesis [7]: 40%

Compound: vitamin E
- free radical generation and lipid peroxidation generated by PUFAs like GLA, EPA and DHA (tumor cells [8]): completely inhibit
